Experimental data published in patent US9422264B2, “Carbamate-substituted oxindole derivatives and use thereof for the treatment of vasopressin-dependent diseases” (AbbVie Deutschland GmbH & Co. KG, priority 2007, dated 2016).
Counter-ions that a name gives are not always drawn.

Columns and labels:
[1] = Determination of the microsomal half-life / microsomal clearance (human liver microsomes); format: in vitro ADME; settings: pH 7.4, 0.5 μM test substance
Description: 5. Determination of the Microsomal Half-Life:
The metabolic stability of the compounds of the invention was determined in the following assay.
The test substances were incubated in a concentration of 0.5 μM as follows:
0.5 μM test substance are preincubated together with liver microsomes from different species (from rat, human or other species) (0.25 mg of microsomal protein/ml) in 0.05 M potassium phosphate buffer of pH 7.4 in microtiter plates at 37° C. for 5 min. The reaction is started by adding NADPH (1 mg/mL). After 0, 5, 10, 15, 20 and 30 min, 50 μl aliquots are removed, and the reaction is immediately stopped and cooled with the same volume of acetonitrile. The samples are frozen until analyzed. The remaining concentration of undegraded test substance is determined by MSMS. The half-life (T½) is determined from the gradient of the signal of test substance/unit time plot, it being possible to calculate the half-life of the test substance, assuming first order kinetics, from the decrease in the concentration of the compound with time. The microsomal clearance (mCl) is calculated from mCl=In2/T½/(content of microsomal protein in mg/ml)×1000 […] (modified from references: Di, The Society for Biomoleculur Screening, 2003, 453-462; Obach, DMD, 1999 vol. 27. N 11, 1350-1359).

[2] = target: T1, human vasopressin V1b receptor (Homo sapiens, UniProt P47901); test: Vasopressin V1b receptor binding assay; settings: read-out: Ki(h-V1b)*
T1 construct: expressed in transfected cells; host or cells: CHO-K1 (cell line hV1b_3H2_CHO)
T1 sequence (P47901 1-424): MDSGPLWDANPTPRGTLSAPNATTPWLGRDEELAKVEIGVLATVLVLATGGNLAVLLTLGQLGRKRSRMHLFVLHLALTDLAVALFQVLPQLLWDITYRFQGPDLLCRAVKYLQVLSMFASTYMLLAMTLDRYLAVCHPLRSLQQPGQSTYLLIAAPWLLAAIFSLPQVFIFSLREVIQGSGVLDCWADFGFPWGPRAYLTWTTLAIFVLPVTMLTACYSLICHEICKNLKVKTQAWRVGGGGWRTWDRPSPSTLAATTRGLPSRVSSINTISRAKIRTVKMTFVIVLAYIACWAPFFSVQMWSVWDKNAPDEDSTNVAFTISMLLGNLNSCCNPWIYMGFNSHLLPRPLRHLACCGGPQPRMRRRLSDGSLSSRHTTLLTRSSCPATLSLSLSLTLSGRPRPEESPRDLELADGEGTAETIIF
Description: 1. Vasopressin V1b Receptor Binding Assay:
The substance concentration was further diluted 1:5 in the assay mixture (2% DMSO in the mixture).
All determinations were carried out as triplicate determinations.

[3] = target: T2, recombinant human oxytocin receptors (Homo sapiens, UniProt P30559); test: Oxytocin receptor binding assay; settings: selectivity quotient, human OT versus human V1b
T2 construct: expressed in transfected cells; host or cells: HEK-293 (transient)
T2 sequence (P30559 1-389): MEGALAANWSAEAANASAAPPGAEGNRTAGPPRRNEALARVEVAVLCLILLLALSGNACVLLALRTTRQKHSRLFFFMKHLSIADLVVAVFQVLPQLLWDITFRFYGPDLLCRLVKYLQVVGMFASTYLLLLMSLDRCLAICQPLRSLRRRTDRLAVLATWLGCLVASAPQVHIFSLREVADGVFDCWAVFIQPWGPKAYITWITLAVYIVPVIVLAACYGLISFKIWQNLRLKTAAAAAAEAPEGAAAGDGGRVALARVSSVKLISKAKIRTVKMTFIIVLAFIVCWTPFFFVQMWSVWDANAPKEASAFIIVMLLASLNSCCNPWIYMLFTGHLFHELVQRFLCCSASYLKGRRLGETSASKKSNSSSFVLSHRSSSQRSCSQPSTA
Description: 4. Oxytocin Receptor Binding Assay
Confluent HEK-293 cells with transiently expressing recombinant human oxytocin receptors were centrifuged at 750×g at room temperature for 5 minutes. The residue was taken up in ice-cold lysis buffer (50 mM Tris-HCl, 10% glycerol, pH 7.4 and Roche complete protease inhibitor) and subjected to an osmotic shock at 4° C. for 20 minutes. The lyzed cells were then centrifuged at 750×g at 4° C. for 20 minutes, the residue was taken up in incubation buffer, and aliquots of 10^7 cells/ml were prepared. The aliquots were frozen at −80° C. until used.
On the day of the experiment, the cells were thawed, diluted with incubation buffer and homogenized using a Multipette Combitip (Eppendorf, Hamburg). […] The nonspecific binding was determined with 10^−6 M oxytocin (Bachem AG, H2510). Triplicate determinations were set up. Bound and free radioligand were separated by filtration under vacuum with Whatman GF/B glass fiber filters with the aid of a Skatron cell harvester 7000. The bound radioactivity was determined by liquid scintillation measurement in a Tricarb Beta counter, model 2000 or 2200CA (Packard).

[4] = target: human vasopressin V1a receptor (Homo sapiens, UniProt P37288); test: Vasopressin V1a receptor binding assay; settings: selectivity quotient, human V1a versus human V1b
human vasopressin V1a receptor, sequence (P37288 whole entry): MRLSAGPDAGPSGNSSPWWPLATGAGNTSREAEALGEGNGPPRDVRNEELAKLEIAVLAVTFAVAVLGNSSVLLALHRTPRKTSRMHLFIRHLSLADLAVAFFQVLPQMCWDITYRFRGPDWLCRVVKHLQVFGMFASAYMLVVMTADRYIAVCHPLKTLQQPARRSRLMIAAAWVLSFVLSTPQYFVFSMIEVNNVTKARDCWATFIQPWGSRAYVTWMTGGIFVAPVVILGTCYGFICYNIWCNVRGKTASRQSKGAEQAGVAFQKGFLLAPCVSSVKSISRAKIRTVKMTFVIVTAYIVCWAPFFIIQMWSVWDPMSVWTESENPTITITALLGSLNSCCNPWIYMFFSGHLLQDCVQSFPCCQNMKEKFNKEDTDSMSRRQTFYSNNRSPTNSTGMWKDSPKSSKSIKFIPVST

Compound	microsomal CLint at 0.5 μM [1]	Ki [2]	Ki(h-OT)/Ki(h-V1b)* [3]	Ki(h-V1a)/Ki(h-V1b)* [4]
CCOc1ncccc1C1(OC(=O)N2CCN(C3CCN(C)CC3)CC2)C(=O)N(S(=O)(=O)c2ccc(OC)cc2OC)c2ccc(C#N)cc21 (racemic) [Example 1, (±)-5-Cyano-1-[(2,4-dimethoxyphenyl)sulfonyl]-3-(2-ethoxypyridin-3-yl)-2-oxo-2,3-dihydro-1H-indol-3-yl-4-(1-methylpiperidin-4-yl)piperazine-1-carboxylate]	75 to 200 µL/min/mg	< 10 nM	+++ (>45)	+++ (>75)
CCOc1ncccc1C1(OC(=O)N2CCN(C3CCN(C)CC3)CC2)C(=O)N(S(=O)(=O)c2ccccc2OC)c2ccc(C#N)cc21 (racemic) [Example 2, (±)-5-Cyano-3-(2-ethoxypyridin-3-yl)-1-[(2-methoxyphenyl)sulfonyl]-2-oxo-2,3-dihydro-1H-indol-3-yl-4-(1-methylpiperidin-4-yl)piperazine-1-carboxylate]	75 to 200 µL/min/mg	< 10 nM	+++ (>45)	+++ (>75)
CCOc1ncccc1C1(OC(=O)N2CCN(C3CCN(C)CC3)CC2)C(=O)N(S(=O)(=O)c2ccccc2)c2ccc(C#N)cc21 (racemic) [Example 4, (±)-5-Cyano-3-(2-ethoxypyridin-3-yl)-2-oxo-1-(phenylsulfonyl)-2,3-dihydro-1H-indol-3-yl 4-(1-methylpiperidin-4-yl)piperazine-1-carboxylate]	< 50 µL/min/mg	< 10 nM	+++ (>45)	+++ (>75)
CCOc1ncccc1C1(OC(=O)N2CCN(C3CCN(C)CC3)CC2)C(=O)N(S(=O)(=O)c2ccc(OC)cc2)c2ccc(C#N)cc21 (racemic) [Example 5, (±)-5-Cyano-3-(2-ethoxypyridin-3-yl)-1-[(4-methoxyphenyl)sulfonyl]-2-oxo-2,3-dihydro-1H-indol-3-yl-4-(1-methylpiperidin-4-yl)piperazine-1-carboxylate]	75 to 200 µL/min/mg	< 10 nM	++ (>25-45)	+++ (>75)
CCOc1ncccc1C1(OC(=O)N2CCN(C3CCN(CC)CC3)CC2)C(=O)N(S(=O)(=O)c2ccccc2)c2ccc(C#N)cc21.O=C(O)C(F)(F)F (racemic) [Example 10, (±)-5-Cyano-3-(2-ethoxypyridin-3-yl)-2-oxo-1-(phenylsulfonyl)-2,3-dihydro-1H-indol-3-yl 4-(1-ethylpiperidin-4-yl)piperazine-1-carboxylate, trifluoroacetic acid salt]	< 50 µL/min/mg	< 10 nM	+++ (>45)	+++ (>75)
CCOc1ncccc1C1(OC(=O)N2CCN(C3CCNCC3)CC2)C(=O)N(S(=O)(=O)c2ccc(OC)cc2OC)c2ccc(C#N)cc21 (racemic) [Example 25, (±)-5-Cyano-1-[(2,4-dimethoxyphenyl)sulfonyl]-3-(2-ethoxypyridin-3-yl)-2-oxo-2,3-dihydro-1H-indol-3-yl-4-piperidin-4-ylpiperazine-1-carboxylate as bis(trifluoroacetic acid) salt]	50 to 75 µL/min/mg	< 10 nM	+ (15-25)	+++ (>75)
CCOc1ncccc1C1(OC(=O)N2CCN(C3CCNCC3)CC2)C(=O)N(S(=O)(=O)c2ccccc2)c2ccc(C#N)cc21 (racemic) [Example 28, (±)-5-Cyano-3-(2-ethoxypyridin-3-yl)-2-oxo-1-(phenylsulfonyl)-2,3-dihydro-1H-indol-3-yl 4-piperidin-4-ylpiperazine-1-carboxylate as bis(trifluoroacetic acid) salt]	< 50 µL/min/mg	10 to 50 nM	+++ (>45)	++ (>25-75)
CCOc1ncccc1C1(OC(=O)N2CCC(N3CCN(C)CC3)CC2)C(=O)N(S(=O)(=O)c2ccccc2OC)c2ccc(C#N)cc21 (racemic) [Example 32, (±)-5-Cyano-3-(2-ethoxypyridin-3-yl)-1-[(2-methoxyphenyl)sulfonyl]-2-oxo-2,3-dihydro-1H-indol-3-yl 4-(4-methylpiperazin-1-yl)piperidine-1-carboxylate]	75 to 200 µL/min/mg	10 to 50 nM	+++ (>45)	++ (>25-75)
CCOc1ncccc1C1(OC(=O)N2CCC(N3CCN(C)CC3)CC2)C(=O)N(S(=O)(=O)c2ccc(OC)cc2)c2ccc(C#N)cc21 (racemic) [Example 35, (±)-5-Cyano-3-(2-ethoxypyridin-3-yl)-1-[(4-methoxyphenyl)sulfonyl]-2-oxo-2,3-dihydro-1H-indol-3-yl 4-(4-methylpiperazin-1-yl)piperidine-1-carboxylate]	75 to 200 µL/min/mg	< 10 nM	++ (>25-45)	++ (>25-75)
CCOc1ncccc1C1(OC(=O)N2CCC(N3CCN(CC)CC3)CC2)C(=O)N(S(=O)(=O)c2ccc(OC)cc2OC)c2ccc(C#N)cc21 (racemic) [Example 37, (±)-5-Cyano-1-[(2,4-dimethoxyphenyl)sulfonyl]-3-(2-ethoxypyridin-3-yl)-2-oxo-2,3-dihydro-1 H-indol-3-yl-4-(4-ethylpiperazin-1-yl)piperidine-1-carboxylate]	75 to 200 µL/min/mg	< 10 nM	+++ (>45)	+++ (>75)
CCOc1ncccc1C1(OC(=O)N2CCC(N3CCN(CC)CC3)CC2)C(=O)N(S(=O)(=O)c2ccccc2)c2ccc(C#N)cc21 (racemic) [Example 40, (±)-5-Cyano-3-(2-ethoxypyridin-3-yl)-2-oxo-1-(phenylsulfonyl)-2,3-dihydro-1H-indol-3-yl 4-(4-ethylpiperazin-1-yl)piperidine-1-carboxylate]	50 to 75 µL/min/mg	< 10 nM	+++ (>45)	++ (>25-75)
CCOc1ncccc1C1(OC(=O)N2CCN(C3CCN(C)CC3)CC2)C(=O)N(S(=O)(=O)c2ccccc2OC)c2ccc(C#N)cc21 (single isomer, unassigned; (-)) [Example 2B, (−)-5-Cyano-3-(2-ethoxypyridin-3-yl)-1-[(2-methoxyphenyl)sulfonyl]-2-oxo-2,3-dihydro-1H-indol-3-yl-4-(1-methylpiperidin-4-yl)piperazine-1-carboxylate]	75 to 200 µL/min/mg	< 10 nM	+++ (>45)	+++ (>75)
